# From patent US20190100534A1, “Cephem Compounds with Latent Reactive Groups” (Gladius Pharmaceuticals, Inc., priority 2017, published 2019)
# Experiments:
# [1] = tested on: Pseudomonas aeruginosa (PA); test: MIC determination; assay type: cell-based; conditions: Pseudomonas aeruginosa; PA; CAMH broth, 20 μM Apo-Transferrin, 37° C., 18 hours; read-out: Minimum Inhibitory Concentrations, PA
# In short: (§1)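 Overnight (18 h, 37 °C) microdilution assay. Pre-grown LB cultures were brought to 0.08-0.1 OD600 in cation-adjusted Mueller-Hinton broth; wells contained 20 μM apo-transferrin and compound between 64 and 0.125 μg/mL. Lowest clear-well concentration recorded as MIC.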
# [2] = tested on: Pseudomonas aeruginosa PA (RR-1); test: MIC determination; assay type: cell-based; conditions: Pseudomonas aeruginosa; PA (RR-1); CAMH broth, 20 μM Apo-Transferrin, 37° C., 18 hours; read-out: Minimum Inhibitory Concentrations, PA (RR-1)
# In short: as §1
# [3] = tested on: Pseudomonas aeruginosa PA (RR-2); test: MIC determination; assay type: cell-based; conditions: Pseudomonas aeruginosa; PA (RR-2); CAMH broth, 20 μM Apo-Transferrin, 37° C., 18 hours; read-out: Minimum Inhibitory Concentrations, PA (RR-2)
# In short: as §1
# [4] = tested on: Pseudomonas aeruginosa PA (URMC-2); test: MIC determination; assay type: cell-based; conditions: Pseudomonas aeruginosa; PA (URMC-2); CAMH broth, 20 μM Apo-Transferrin, 37° C., 18 hours; read-out: Minimum Inhibitory Concentrations, PA (URMC-2)
# In short: as §1
# [5] = tested on: Pseudomonas aeruginosa PA-RR-(980151052); test: MIC determination; assay type: cell-based; conditions: Pseudomonas aeruginosa; PA-RR-(980151052); CAMH broth, 20 μM Apo-Transferrin, 37° C., 18 hours; read-out: Minimum Inhibitory Concentrations, PA-RR-(980151052)
# In short: as §1
# [6] = tested on: Pseudomonas aeruginosa PA-RR-(G7305586); test: MIC determination; assay type: cell-based; conditions: Pseudomonas aeruginosa; PA-RR-(G7305586); CAMH broth, 20 μM Apo-Transferrin, 37° C., 18 hours; read-out: Minimum Inhibitory Concentrations, PA-RR-(G7305586)
# In short: as §1
# [7] = tested on: Pseudomonas aeruginosa PA-RR-(purple Fre D); test: MIC determination; assay type: cell-based; conditions: Pseudomonas aeruginosa, CAMH broth, 20 μM Apo-Transferrin, 37° C., 18 hours, read-out: Minimum Inhibitory Concentrations, PA-RR-(purple Fre D)
# In short: as §1
# EC (RR -1) = test: MIC determination; assay type: cell-based, Escherichia coli; conditions: CAMH broth, 20 μM Apo-Transferrin, 37° C., 18 hours
# Protocol: (§2) Sterile technique was used throughout these experiments. Suspensions of organisms were removed from storage (−80° C.) and partially thawed. Partially thawed organisms (1 μL) were inoculated into 3 mL sterile LB Broth in a sterile culture tube and capped, then cultured at 37° C. with shaking for 4-5 hours until the optical density at 600 nm (OD600) was greater than 0.1 on a single beam spectrophotometer.
# (§3) The concentration of organisms was adjusted to 0.08-0.1 OD600 (0.5 McFarland units) by dilution with sterile cation-adjusted Meuller-Hinton (CAMH) broth. The suspensions were used within 30 minutes of preparation.
# (§4) A stock solution was made of each test compound by measuring 6.4 mg of the compound on an analytical balance and dissolving it in DMSO (1 mL) to get a transparent solution. The solutions were stored at −20° C. and thawed prior to use.
# (§5) Sterile CAMH broth (200 μL) containing 20 μM Apo-Transferrin was pipetted into the first row of 8 columns of a sterile, round-bottomed, transparent, 96-well microplate using an 8-channel pipette equipped with sterile tips. One hundred μL was pipetted into the wells of the remaining 11 rows.
# (§6) With an 8-channel pipette equipped with sterile tips, 100 μL of the first row solution was transferred to the second row and mixed. The process was repeated for the second to third rows and continued through row 11. One hundred μL from row 11 was removed and discarded so that all 12 rows contained 100 μL. Row 12 contained no compound and rows 1-11 contained 64, 32, 16, 8, 4, 2, 1, 0.5, 0.25, 0.125, […] of a given compound.
# (§7) Inoculant suspensions (0.5 μL) were added to the 12 wells of each column. The plates were then covered and incubated at 37° C. overnight for 18 hours.
# (§8) For each organism the MIC was determined by identifying the transparent well with the lowest test compound concentration.
# EC (RR -2) = test: MIC determination; assay type: cell-based, Escherichia coli; conditions: CAMH broth, 20 μM Apo-Transferrin, 37° C., 18 hours
# Protocol: as §2, §3, §4, §5, §6, §7, §8
# EC (URMC-1) = test: MIC determination; assay type: cell-based, Escherichia coli; conditions: Escherichia coli, CAMH broth, 20 μM Apo-Transferrin, 37° C., 18 hours, read-out: Minimum Inhibitory Concentrations, EC (URMC-1)
# Protocol: as §2, §3, §4, §5, §6, §7, §8
# EC (URMC-2) = test: MIC determination; assay type: cell-based, Escherichia coli; conditions: Escherichia coli, CAMH broth, 20 μM Apo-Transferrin, 37° C., 18 hours, read-out: Minimum Inhibitory Concentrations, EC (URMC-2)
# Protocol: as §2, §3, §4, §5, §6, §7, §8
# EC (URMC-3) = test: MIC determination; assay type: cell-based, Escherichia coli; conditions: Escherichia coli, CAMH broth, 20 μM Apo-Transferrin, 37° C., 18 hours, read-out: Minimum Inhibitory Concentrations, EC (URMC-3)
# Protocol: as §2, §3, §4, §5, §6, §7, §8
# EC(ATCC NDM-1) = test: MIC determination; assay type: cell-based, Escherichia coli; conditions: Escherichia coli, CAMH broth, 20 μM Apo-Transferrin, 37° C., 18 hours, read-out: Minimum Inhibitory Concentrations, EC(ATCC NDM-1)
# Protocol: as §2, §3, §4, §5, §6, §7, §8
# EC(JMI OXA-48) = test: MIC determination; assay type: cell-based, Escherichia coli; conditions: Escherichia coli, CAMH broth, 20 μM Apo-Transferrin, 37° C., 18 hours, read-out: Minimum Inhibitory Concentrations, EC(JMI OXA-48)
# Protocol: as §2, §3, §4, §5, §6, §7, §8
# EC(KB1 CTX-M-15) = test: MIC determination; assay type: cell-based, Escherichia coli; conditions: Escherichia coli, CAMH broth, 20 μM Apo-Transferrin, 37° C., 18 hours, read-out: Minimum Inhibitory Concentrations, EC(KB1 CTX-M-15)
# Protocol: as §2, §3, §4, §5, §6, §7, §8
# EC(KB2 CTX-M-15) = test: MIC determination; assay type: cell-based, Escherichia coli; conditions: Escherichia coli, CAMH broth, 20 μM Apo-Transferrin, 37° C., 18 hours, read-out: Minimum Inhibitory Concentrations, EC(KB2 CTX-M-15)
# Protocol: as §2, §3, §4, §5, §6, §7, §8
# KP (ATCC KPC-3) = test: MIC determination; assay type: cell-based, Klebsiella pneumoniae; conditions: CAMH broth, 20 μM Apo-Transferrin, 37° C., 18 hours
# Protocol: as §2, §3, §4, §5, §6, §7, §8
# KP (GJ 5659 TEM-26) = test: MIC determination; assay type: cell-based, Klebsiella pneumoniae; conditions: CAMH broth, 20 μM Apo-Transferrin, 37° C., 18 hours
# Protocol: as §2, §3, §4, §5, §6, §7, §8
# KP (RR -1) = test: MIC determination; assay type: cell-based, Klebsiella pneumoniae; conditions: CAMH broth, 20 μM Apo-Transferrin, 37° C., 18 hours
# Protocol: as §2, §3, §4, §5, §6, §7, §8
# KP (URMC-1) = test: MIC determination; assay type: cell-based, Klebsiella pneumoniae; conditions: CAMH broth, 20 μM Apo-Transferrin, 37° C., 18 hours
# Protocol: as §2, §3, §4, §5, §6, §7, §8
# KP (URMC-2) = test: MIC determination; assay type: cell-based, Klebsiella pneumoniae; conditions: CAMH broth, 20 μM Apo-Transferrin, 37° C., 18 hours
# Protocol: as §2, §3, §4, §5, §6, §7, §8
# KP (URMC-3) = test: MIC determination; assay type: cell-based, Klebsiella pneumoniae; conditions: CAMH broth, 20 μM Apo-Transferrin, 37° C., 18 hours
# Protocol: as §2, §3, §4, §5, §6, §7, §8
# KP(GJ 5934 TEM-26) = test: MIC determination; assay type: cell-based, Klebsiella pneumoniae; conditions: CAMH broth, 20 μM Apo-Transferrin, 37° C., 18 hours
# Protocol: as §2, §3, §4, §5, §6, §7, §8
# KP(JMI KPC-2) = test: MIC determination; assay type: cell-based, Klebsiella pneumoniae; conditions: CAMH broth, 20 μM Apo-Transferrin, 37° C., 18 hours
# Protocol: as §2, §3, §4, §5, §6, §7, §8
# KP(ATCC TEM-10/TEM-12) = assay type: cell-based, Klebsiella pneumoniae; conditions: CAMH broth, 20 μM Apo-Transferrin, 37° C., 18 hours
# Protocol: as §2, §3, §4, §5, §6, §7, §8
# ENA (URMC-1) = test: MIC determination; assay type: cell-based, Enterobacter aerogenes; conditions: Klebsiella aerogenes, CAMH broth, 20 μM Apo-Transferrin, 37° C., 18 hours, read-out: Minimum Inhibitory Concentrations, ENA (URMC-1)
# Protocol: as §2, §3, §4, §5, §6, §7, §8
# ENA (URMC-2) = test: MIC determination; assay type: cell-based, Enterobacter aerogenes; conditions: Klebsiella aerogenes, CAMH broth, 20 μM Apo-Transferrin, 37° C., 18 hours, read-out: Minimum Inhibitory Concentrations, ENA (URMC-2)
# Protocol: as §2, §3, §4, §5, §6, §7, §8
# CF (RR -1) = test: MIC determination; assay type: cell-based, Citrobacter freundii; conditions: CAMH broth, 20 μM Apo-Transferrin, 37° C., 18 hours
# Protocol: as §2, §3, §4, §5, §6, §7, §8
structure (smiles),measurement,setting,value
"CC(C)(O/N=C(\C(=O)N[C@@H]1C(=O)N2C(C(=O)O)=C(C=Cc3ccc(C[N+]4(C)CCc5cc(O)c(O)cc5C4)cc3)CS[C@H]12)c1csc(N)n1)C(=O)O (mixture of isomers) [Compound 407, 2-(4-((E/Z)-2-((6R,7R)-7-((Z)-2-(2-aminothiazol-4-yl)-2-(((2-carboxypropan-2-yl)oxy)imino)acetamido)-2-carboxy-8-oxo-5-thia-1-azabicyclo[4.2.0]oct-2-en-3 yl)vinyl)benzyl)-6,7-dihydroxy-2-methyl-1,2,3,4-tetrahydroisoquinolin-2-ium]",MIC,[1],2 µg/mL
same,MIC,[2],4 µg/mL
same,MIC,[3],2 µg/mL
same,MIC,[4],4 µg/mL
same,MIC,[5],0.06 µg/mL
same,MIC,[6],0.03 µg/mL
same,MIC,[7],0.06 µg/mL
same,"Mimimum Inhibitory Concentrations, EC (RR -1)",EC (RR -1),0.13 microgram/mL
same,"Mimimum Inhibitory Concentrations, EC (RR -2)",EC (RR -2),0.13 microgram/mL
same,MIC,EC (URMC-1),0.25 µg/mL
same,MIC,EC (URMC-2),0.25 µg/mL
same,MIC,EC (URMC-3),≤ 0.06 µg/mL
same,MIC,EC(ATCC NDM-1),> 64 µg/mL
same,MIC,EC(JMI OXA-48),16 µg/mL
same,MIC,EC(KB1 CTX-M-15),> 64 µg/mL
same,MIC,EC(KB2 CTX-M-15),> 64 µg/mL
same,"Minimum Inhibitory Concentrations, KP (ATCC KPC-3)",KP (ATCC KPC-3),64 microgram/mL
same,"Minimum Inhibitory Concentrations, KP (GJ 5659 TEM-26)",KP (GJ 5659 TEM-26),2 microgram/mL
same,"Mimimum Inhibitory Concentrations, KP (RR -1)",KP (RR -1),0.5 microgram/mL
same,"Minimum Inhibitory Concentrations, KP (URMC-1)",KP (URMC-1),0.13 microgram/mL
same,"Minimum Inhibitory Concentrations, KP (URMC-2)",KP (URMC-2),0.25 microgram/mL
same,"Minimum Inhibitory Concentrations, KP (URMC-3)",KP (URMC-3),0.13 microgram/mL
same,"Minimum Inhibitory Concentrations, KP(GJ 5934 TEM-26)",KP(GJ 5934 TEM-26),2 microgram/mL
same,"Minimum Inhibitory Concentrations, KP(JMI KPC-2)",KP(JMI KPC-2),16 microgram/mL
same,"Minimum Inhibitory Concentrations, KP(ATCC TEM-10/TEM-12)",KP(ATCC TEM-10/TEM-12),0.25 microgram/mL
same,MIC,ENA (URMC-1),0.5 µg/mL
same,MIC,ENA (URMC-2),0.5 µg/mL
same,"Mimimum Inhibitory Concentrations, CF (RR -1)",CF (RR -1),0.13 microgram/mL
"C#CC[N+]1(Cc2ccc(C=CC3=C(C(=O)O)N4C(=O)[C@@H](NC(=O)/C(=N\OC(C)(C)C(=O)O)c5csc(N)n5)[C@H]4SC3)cc2)CCc2cc(O)c(O)cc2C1 (mixture of isomers) [Compound 446, 2-(4-((E/Z)-2-((6R,7R)-7-((Z)-2-(2-aminothiazol-4-yl)-2-(((2-carboxypropan-2-yl)oxy)imino)acetamido)-2-carboxy-8-oxo-5-thia-1-azabicyclo[4.2.0]oct-2-en-3-yl)vinyl)benzyl)-6,7-dihydroxy-2-(prop-2-yn-1-yl)-1,2,3,4-tetrahydroisoquinolin-2-ium]",MIC,EC(ATCC NDM-1),> 64 µg/mL
same,MIC,EC(JMI OXA-48),16 µg/mL
same,MIC,EC(KB1 CTX-M-15),64 µg/mL
same,MIC,EC(KB2 CTX-M-15),> 64 µg/mL
same,"Minimum Inhibitory Concentrations, KP (ATCC KPC-3)",KP (ATCC KPC-3),64 microgram/mL
same,"Minimum Inhibitory Concentrations, KP (GJ 5659 TEM-26)",KP (GJ 5659 TEM-26),2 microgram/mL
same,"Minimum Inhibitory Concentrations, KP(GJ 5934 TEM-26)",KP(GJ 5934 TEM-26),0.5 microgram/mL
same,"Minimum Inhibitory Concentrations, KP(JMI KPC-2)",KP(JMI KPC-2),32 microgram/mL
same,"Minimum Inhibitory Concentrations, KP(ATCC TEM-10/TEM-12)",KP(ATCC TEM-10/TEM-12),16 microgram/mL
